{"source": "PubChem BioAssay (NCI)", "experiment_in_all_cases": "inhibition of tumour cell growth, NCI panel, 48 h", "key": {"[1]": {"test_system": "OVCAR-4 ovarian"}, "[2]": {"test_system": "A549 NSCLC"}, "[3]": {"test_system": "MOLT-4 leukemia"}, "[4]": {"test_system": "MDA-MB-231 breast"}, "[5]": {"test_system": "KM12 colon"}, "[6]": {"test_system": "CCRF-CEM leukemia"}, "[7]": {"test_system": "RXF 393 renal"}, "[8]": {"test_system": "NCI-H23 lung"}, "[9]": {"test_system": "786-0 renal"}, "[10]": {"test_system": "RPMI-8226 leukemia"}}, "note": "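96-well plates; 48 h exposure; 5 concentrations. Endpoints by linear interpolation between flanking doses. Not reached: highest tested concentration assigned. Abbreviation: GI50, concentration required for 50% inhibition of growth. TGI: concentration producing complete growth inhibition.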", "data": [{"smiles": "C=CC1=C(C)C2=NC1=CC1=NC(=C(CC)/C1=C\\O)C=C1N=C3C(=C1C)C(=O)[C@H](C(=O)OC)C3=C1NC(=C2)[C@@H](C)[C@@H]1CCC(=O)O", "values": [{"measurement": "TGI", "setting": "[1]", "value": "> 100", "unit": "µM"}, {"measurement": "TGI", "setting": "[2]", "value": "> 100", "unit": "µM"}, {"measurement": "TGI", "setting": "[3]", "value": "> 100", "unit": "µM"}, {"measurement": "TGI", "setting": "[4]", "value": "> 100", "unit": "µM"}, {"measurement": "TGI", "setting": "[5]", "value": "> 100", "unit": "µM"}, {"measurement": "TGI", "setting": "[6]", "value": "> 100", "unit": "µM"}, {"measurement": "TGI", "setting": "[7]", "value": 13.3, "unit": "µM"}, {"measurement": "TGI", "setting": "[8]", "value": "> 100", "unit": "µM"}, {"measurement": "TGI", "setting": "[9]", "value": "> 100", "unit": "µM"}]}, {"smiles": "CCCCCn1c(C)cc(/C=C\\c2ccc3cc(C)ccc3[n+]2C)c1C", "values": [{"measurement": "GI50", "setting": "[10]", "value": 0.0202, "unit": "µM"}, {"measurement": "TGI", "setting": "[10]", "value": 0.322, "unit": "µM"}, {"measurement": "GI50", "setting": "[1]", "value": 0.0683, "unit": "µM"}, {"measurement": "TGI", "setting": "[1]", "value": 1.51, "unit": "µM"}, {"measurement": "GI50", "setting": "[2]", "value": 0.0557, "unit": "µM"}, {"measurement": "TGI", "setting": "[2]", "value": 0.97, "unit": "µM"}, {"measurement": "GI50", "setting": "[3]", "value": 0.0769, "unit": "µM"}, {"measurement": "TGI", "setting": "[3]", "value": 0.327, "unit": "µM"}, {"measurement": "GI50", "setting": "[4]", "value": 0.329, "unit": "µM"}, {"measurement": "TGI", "setting": "[4]", "value": 1.71, "unit": "µM"}, {"measurement": "GI50", "setting": "[5]", "value": 0.0836, "unit": "µM"}, {"measurement": "TGI", "setting": "[5]", "value": 1.21, "unit": "µM"}, {"measurement": "GI50", "setting": "[6]", "value": 0.0354, "unit": "µM"}, {"measurement": "TGI", "setting": "[6]", "value": 0.601, "unit": "µM"}, {"measurement": "GI50", "setting": "[8]", "value": 0.0414, "unit": "µM"}, {"measurement": "TGI", "setting": "[8]", "value": 1.1, "unit": "µM"}, {"measurement": "GI50", "setting": "[9]", "value": 0.219, "unit": "µM"}, {"measurement": "TGI", "setting": "[9]", "value": 1.17, "unit": "µM"}]}, {"smiles": "N.N.O=P([O-])([O-])C1(P(=O)([O-])[O-])CCCCCN1.[Pt+2]", "values": [{"measurement": "GI50", "setting": "[10]", "value": "> 100", "unit": "µM"}, {"measurement": "TGI", "setting": "[10]", "value": "> 100", "unit": "µM"}, {"measurement": "GI50", "setting": "[1]", "value": "> 100", "unit": "µM"}, {"measurement": "TGI", "setting": "[1]", "value": "> 100", "unit": "µM"}, {"measurement": "GI50", "setting": "[2]", "value": "> 100", "unit": "µM"}, {"measurement": "TGI", "setting": "[2]", "value": "> 100", "unit": "µM"}, {"measurement": "GI50", "setting": "[3]", "value": "> 100", "unit": "µM"}, {"measurement": "TGI", "setting": "[3]", "value": "> 100", "unit": "µM"}, {"measurement": "GI50", "setting": "[5]", "value": "> 100", "unit": "µM"}, {"measurement": "TGI", "setting": "[5]", "value": "> 100", "unit": "µM"}, {"measurement": "GI50", "setting": "[6]", "value": "> 100", "unit": "µM"}, {"measurement": "TGI", "setting": "[6]", "value": "> 100", "unit": "µM"}, {"measurement": "GI50", "setting": "[7]", "value": 42.3, "unit": "µM"}, {"measurement": "TGI", "setting": "[7]", "value": "> 100", "unit": "µM"}, {"measurement": "GI50", "setting": "[8]", "value": "> 100", "unit": "µM"}, {"measurement": "TGI", "setting": "[8]", "value": "> 100", "unit": "µM"}, {"measurement": "GI50", "setting": "[9]", "value": "> 100", "unit": "µM"}, {"measurement": "TGI", "setting": "[9]", "value": "> 100", "unit": "µM"}]}, {"smiles": "O=C1OCC2=C1C(c1ccccc1)c1cc3c(cc1N2CCO)OCCO3", "note": "(stereo not given)", "values": [{"measurement": "GI50", "setting": "[10]", "value": 0.392, "unit": "µM"}, {"measurement": "TGI", "setting": "[10]", "value": "> 50", "unit": "µM"}, {"measurement": "GI50", "setting": "[1]", "value": 0.587, "unit": "µM"}, {"measurement": "TGI", "setting": "[1]", "value": "> 50", "unit": "µM"}, {"measurement": "GI50", "setting": "[2]", "value": 0.62, "unit": "µM"}, {"measurement": "TGI", "setting": "[2]", "value": "> 40.1", "unit": "µM"}, {"measurement": "GI50", "setting": "[3]", "value": 0.236, "unit": "µM"}, {"measurement": "TGI", "setting": "[3]", "value": "> 10.4", "unit": "µM"}, {"measurement": "GI50", "setting": "[4]", "value": 1.14, "unit": "µM"}, {"measurement": "TGI", "setting": "[4]", "value": 11.5, "unit": "µM"}, {"measurement": "GI50", "setting": "[5]", "value": 0.207, "unit": "µM"}, {"measurement": "TGI", "setting": "[5]", "value": 6.19, "unit": "µM"}, {"measurement": "GI50", "setting": "[6]", "value": 0.276, "unit": "µM"}, {"measurement": "TGI", "setting": "[6]", "value": "> 50", "unit": "µM"}, {"measurement": "GI50", "setting": "[8]", "value": 0.448, "unit": "µM"}, {"measurement": "TGI", "setting": "[8]", "value": "> 50", "unit": "µM"}, {"measurement": "GI50", "setting": "[9]", "value": 0.288, "unit": "µM"}, {"measurement": "TGI", "setting": "[9]", "value": "> 50", "unit": "µM"}]}, {"smiles": "CN(C)C(=O)Oc1c(-c2ccccc2)c(=O)n2c3ccccc3n3c(=O)n(C)c(=O)c1c23", "values": [{"measurement": "TGI", "setting": "[10]", "value": "> 100", "unit": "µM"}, {"measurement": "TGI", "setting": "[1]", "value": "> 100", "unit": "µM"}, {"measurement": "TGI", "setting": "[2]", "value": "> 100", "unit": "µM"}, {"measurement": "TGI", "setting": "[3]", "value": "> 100", "unit": "µM"}, {"measurement": "TGI", "setting": "[7]", "value": "> 100", "unit": "µM"}, {"measurement": "TGI", "setting": "[8]", "value": "> 100", "unit": "µM"}, {"measurement": "TGI", "setting": "[9]", "value": "> 100", "unit": "µM"}]}, {"smiles": "O=S1Nc2c(Cl)cc(Cl)c(Cl)c2S1", "note": "(stereo not given)", "values": [{"measurement": "TGI", "setting": "[10]", "value": "> 100", "unit": "µM"}, {"measurement": "TGI", "setting": "[1]", "value": "> 100", "unit": "µM"}, {"measurement": "TGI", "setting": "[2]", "value": "> 100", "unit": "µM"}, {"measurement": "TGI", "setting": "[3]", "value": "> 100", "unit": "µM"}, {"measurement": "TGI", "setting": "[5]", "value": "> 100", "unit": "µM"}, {"measurement": "TGI", "setting": "[6]", "value": "> 100", "unit": "µM"}, {"measurement": "TGI", "setting": "[7]", "value": "> 100", "unit": "µM"}, {"measurement": "TGI", "setting": "[8]", "value": "> 100", "unit": "µM"}, {"measurement": "TGI", "setting": "[9]", "value": "> 100", "unit": "µM"}]}, {"smiles": "CCN(CC)CCNC(=O)c1cccc2nc3ccccc3nc12", "values": [{"measurement": "TGI", "setting": "[10]", "value": "> 100", "unit": "µM"}, {"measurement": "TGI", "setting": "[1]", "value": 38.8, "unit": "µM"}, {"measurement": "TGI", "setting": "[2]", "value": "> 89.1", "unit": "µM"}, {"measurement": "TGI", "setting": "[3]", "value": 37.3, "unit": "µM"}, {"measurement": "TGI", "setting": "[5]", "value": 45.8, "unit": "µM"}, {"measurement": "TGI", "setting": "[7]", "value": 28.2, "unit": "µM"}, {"measurement": "TGI", "setting": "[8]", "value": 31.8, "unit": "µM"}, {"measurement": "TGI", "setting": "[9]", "value": "> 100", "unit": "µM"}]}, {"smiles": "O=C1NCCS(=O)(=O)N2CCC[C@@H]12", "values": [{"measurement": "TGI", "setting": "[10]", "value": "> 100", "unit": "µM"}, {"measurement": "TGI", "setting": "[1]", "value": "> 100", "unit": "µM"}, {"measurement": "TGI", "setting": "[2]", "value": "> 100", "unit": "µM"}, {"measurement": "TGI", "setting": "[3]", "value": "> 100", "unit": "µM"}, {"measurement": "TGI", "setting": "[5]", "value": "> 100", "unit": "µM"}, {"measurement": "TGI", "setting": "[6]", "value": "> 100", "unit": "µM"}, {"measurement": "TGI", "setting": "[7]", "value": "> 100", "unit": "µM"}, {"measurement": "TGI", "setting": "[8]", "value": "> 100", "unit": "µM"}, {"measurement": "TGI", "setting": "[9]", "value": "> 100", "unit": "µM"}]}, {"smiles": "Oc1ccc(Cc2cc(Cl)cc(Cl)c2O)cc1Cl", "values": [{"measurement": "TGI", "setting": "[10]", "value": 48.4, "unit": "µM"}, {"measurement": "TGI", "setting": "[1]", "value": 58.3, "unit": "µM"}, {"measurement": "TGI", "setting": "[2]", "value": 41.3, "unit": "µM"}, {"measurement": "TGI", "setting": "[3]", "value": 55.6, "unit": "µM"}, {"measurement": "TGI", "setting": "[4]", "value": 34.3, "unit": "µM"}, {"measurement": "TGI", "setting": "[5]", "value": 49.6, "unit": "µM"}, {"measurement": "TGI", "setting": "[7]", "value": 28.8, "unit": "µM"}, {"measurement": "TGI", "setting": "[8]", "value": 32.3, "unit": "µM"}, {"measurement": "TGI", "setting": "[9]", "value": 43, "unit": "µM"}]}]}
